# Reference: article PMC6271520, “Isolation and Characterization of an α-Glucosidase Inhibitor from Musa spp. (Baxijiao) Flowers” (Molecules, 2014)
# Where two headings read alike, the source gives them in different places.
# Tests used:
# [1] = target: T1, α-Glucosidase from Bacillus stearothermophilus (Geobacillus stearothermophilus, UniProt A0ACH1E9U3); assay: Lineweaver–Burk plot analysis of inhibition kinetics of α-glucosidase; type: biochemical; settings: for mode of inhibition: Lineweaver–Burk plot, varying pNPG; for Ki: from Vmax at 12.5 and 50.0 mg/L (compound 5), 400 and 800 mg/L (compounds 3 and 4)
# T1 sequence (A0ACH1E9U3 entry or part of it): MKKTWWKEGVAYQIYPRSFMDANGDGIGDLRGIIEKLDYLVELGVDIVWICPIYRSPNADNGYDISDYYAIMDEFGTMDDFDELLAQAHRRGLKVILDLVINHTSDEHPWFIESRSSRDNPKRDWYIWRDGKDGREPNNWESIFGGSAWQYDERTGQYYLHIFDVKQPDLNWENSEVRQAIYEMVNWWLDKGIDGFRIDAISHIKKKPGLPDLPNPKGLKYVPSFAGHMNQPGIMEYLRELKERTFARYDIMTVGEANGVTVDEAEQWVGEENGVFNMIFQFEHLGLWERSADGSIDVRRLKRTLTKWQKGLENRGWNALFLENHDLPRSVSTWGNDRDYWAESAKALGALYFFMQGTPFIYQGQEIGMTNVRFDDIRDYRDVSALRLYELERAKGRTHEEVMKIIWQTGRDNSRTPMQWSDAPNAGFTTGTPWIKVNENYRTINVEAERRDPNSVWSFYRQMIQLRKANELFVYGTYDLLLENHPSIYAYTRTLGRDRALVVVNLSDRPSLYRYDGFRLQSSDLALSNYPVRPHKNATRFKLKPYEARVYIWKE
# Method: The mechanism of the binding of compounds 3, 4 and 5 to α-glucosidase was further studied.
# The Ki value was calculated using the values of Vmax obtained at 12.5 and 50.0 mg/L for compound 5 and the values of Vmax obtained at 400 and 800 mg/L for compounds 3 and 4, respectively.
# To determine the kinetic mode of inhibition of isolated α-glucosidase inhibitors, Lineweaver–Burk plot analysis was performed. This kinetics study was carried out in the presence and absence of inhibitors with varying concentrations of 4-NPGP as the substrate. The mode of inhibition of the test compounds was assessed on the basis of the inhibitory effects on Km (dissociation constant) and Vmax (maximum reaction velocity) of the enzyme determined using a Lineweaver-Burk plot, which is the double reciprocal plot of the enzyme reaction velocity (V) versus the substrate (p-nitrophenyl β-D-glucopyranoside, pNPG) concentration (1/V versus 1/[pNPG]).
# α-glucosidase [2] = target: α-glucosidase; design: method as in doi:10.1016/j.phytol.2013.08.005; settings: β-sitosterol isolated from Chrozophora plicata; cited from earlier work
# [3] = target: T1, α-Glucosidase from Bacillus stearothermophilus; assay: α-glucosidase inhibitory activity assay (pNPG substrate, PNP release at 405 nm); type: biochemical; settings: for IC50: pH 6.8, 37 °C, 2.5 mmol/L pNPG
# Method: Louis, MO, USA). […] All the reagents were of analytical grade. […] Then 0.5 mL of 2.5 mmol/L p-nitrophenyl-α-D-glucopyranoside as the substrate was added to the mixture to start the reaction. The reaction was incubated at 37 °C for 15 min and stopped by adding 1 mL 0.2 mol/L sodium carbonate solution. The α-glucosidase activity was determined by measuring the release of PNP at 405 nm. For the inhibitory activity assay, crude ethanol extracts were dissolved in 50% aqueous dimethyl sulfoxide, while the chloroform, ethyl acetate, and n-butanol fractions and puriﬁed compounds were dissolved in dimethyl sulfoxide. […] The inhibition of the test sample on α-glucosidase was calculated as follows: […] where Acontrol: Absorbance for 100% enzyme activity (+enzyme), Asample: Test sample (+enzyme + inhibitor) and Abackground: Inhibitor background absorbance (−enzyme + inhibitor).
# α-glucosidase [4] = target: α-glucosidase; design: method as in PMID 17270224; settings: vanillic acid from stem bark of Fagara tessmannii; cited from earlier work
# [5] = read-out: IC50 (mg/L) (converted)
SMILES,mode of inhibition [1],IC50 ([3]; read-out: IC50 (mg/L)) [µM],"IC50 [3, 5] [µM]",also measured
"CC[C@H](CC[C@@H](C)[C@H]1CC[C@H]2[C@@H]3CC=C4C[C@@H](O)CC[C@]4(C)[C@H]3CC[C@]12C)C(C)C [Compound 3, β-Sitosterol]",competitive inhibitors,684,–,Ki ([1]; read-out: inhibition constant (Ki)): 48.4 µM; IC50 (α-glucosidase [2]): 287.1 ± 0.75 µM
"COc1cc(C(=O)O)ccc1O [Compound 1, Vanillic acid]",–,11900,–,IC50 (α-glucosidase [4]): 69.4 ± 0.8 µM
"CC[C@H](CC[C@@H](C)[C@H]1CC[C@H]2[C@@H]3CC=C4C[C@@H](O[C@@H]5O[C@H](CO)[C@@H](O)[C@H](O)[C@H]5O)CC[C@]4(C)[C@H]3CC[C@]12C)C(C)C [Compound 4, Daucosterol]",competitive inhibitors,–,429,Ki ([1]; read-out: inhibition constant (Ki) (converted)): 4.06 µM
"C[C@H]1O[C@H](O[C@H]2[C@H](O)[C@@H](O)[C@@H](O[C@H]3[C@H](O)[C@@H](O)C(O)O[C@@H]3CO)O[C@@H]2CO)[C@H](O)[C@@H](O)[C@@H]1N[C@H]1C=C(CO)[C@@H](O)[C@H](O)[C@H]1O (stereo partly drawn) [Acarbose, reference compound]",–,–,1550,"inhibition at 1500 µg/mL ([3]; at 1.5 mg/mL, read-out: percent inhibition against α-glucosidase): 56.4%"
"COc1cc(/C=C/C(=O)O)ccc1O [Compound 2, Ferulic acid]",–,6480,–,–
